ChEMBL document CHEMBL5120837, “Synthesis and biological evaluation of conformationally restricted GluN2B ligands derived from eliprodil” (Eur J Med Chem, 2022)

Legend:
[1] = Displacement of [3H]ifenprodil from recombinant human GluN1A/GluN2B expressed in mouse L-M(TK-) cell membranes after 120 mins by microbeta scintillation counting method; design: species or system Membrane
[2] = target: Sigma non-opioid intracellular receptor 1 (Cavia porcellus, UniProt Q60492); assay: Displacement of [3H]-(+)-pentazocine from sigma1 receptor in guinea pig brain cortex membranes measured after 120 mins by scintillation counting method; format: cell membranes, Cerebral cortex, Membrane
Sequence of Sigma non-opioid intracellular receptor 1 (Q60492 whole entry): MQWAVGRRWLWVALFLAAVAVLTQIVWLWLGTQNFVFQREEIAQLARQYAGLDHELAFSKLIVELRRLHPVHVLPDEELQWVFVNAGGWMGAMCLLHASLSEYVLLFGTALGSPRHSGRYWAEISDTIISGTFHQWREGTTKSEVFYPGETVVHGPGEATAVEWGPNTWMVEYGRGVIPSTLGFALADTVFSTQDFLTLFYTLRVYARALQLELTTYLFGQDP

[3] = target: T1, Sigma intracellular receptor 2 (Rattus norvegicus, UniProt Q5U3Y7); assay: Displacement of [3H]-DTG from sigma 2 receptor in rat liver membrane measured after 120 mins by microbeta counting analysis; format: cell membranes
T1 sequence (Q5U3Y7 whole entry): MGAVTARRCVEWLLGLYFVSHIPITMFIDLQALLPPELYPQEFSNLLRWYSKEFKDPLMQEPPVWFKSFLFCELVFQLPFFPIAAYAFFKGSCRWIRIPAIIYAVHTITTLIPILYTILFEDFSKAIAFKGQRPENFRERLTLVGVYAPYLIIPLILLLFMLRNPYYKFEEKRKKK

Oocyte = assay: Antagonist activity at GluN1a/GluN2B NMDA receptor (unknown origin) expressed in Xenopus oocytes assessed as inhibition of glycine and (S)-glutamate-induced ion channel activation at 1 uM at -70 mV holding potential by two-electrode voltage clamp method relative to control; format: cell-based; details: Homo sapiens

In the case of `O[C@H](CN1[C@@H]2CC[C@H]1C/C(=C\c1ccc(F)cc1)C2)c1ccccc1`, the Ki [1] is reported as 2.9 nM, the Ki [2] is reported as 0.45 nM and the Ki [3] is reported as 11 nM. It also gave an inhibition (Oocyte) of 1.7%.
`OC(CN1CCC(Cc2ccc(F)cc2)CC1)c1ccc(Cl)cc1` (stereo not drawn) [ELIPRODIL] gave a Ki [1] of 13 nM.
In the case of `O[C@@H](CN1[C@@H]2CC[C@H]1C[C@H](Cc1ccc(F)cc1)C2)c1ccccc1`, the Ki [1] is reported as 17 nM, the Ki [2] is reported as 7 nM and the Ki [3] is reported as 23 nM. The inhibition (Oocyte) was 5.4%.
For `O[C@@H](CN1[C@@H]2CC[C@H]1C/C(=C/c1ccccc1)C2)c1ccccc1`, the Ki [1] was 34 nM, the Ki [2] was 6 nM and the Ki [3] was 101 nM.
For `O[C@@H](CN1[C@@H]2CC[C@H]1C[C@@H](Cc1ccccc1)C2)c1ccc(F)cc1`, the Ki [1] was 1.7 nM, the Ki [2] was 0.7 nM and the Ki [3] was 6 nM.
Compound `O[C@@H](CN1[C@@H]2CC[C@H]1C/C(=C\c1ccc(F)cc1)C2)c1ccc(F)cc1` has a Ki [1] of 1 nM, a Ki [2] of 0.9 nM and a Ki [3] of 15 nM.
`O[C@@H](CN1[C@@H]2CC[C@H]1C[C@@H](Cc1ccccc1)C2)c1ccccc1` showed a Ki [1] of 2.1 nM, a Ki [2] of 1.3 nM and a Ki [3] of 9 nM.
`O[C@H](CN1[C@@H]2CC[C@H]1C[C@@H](Cc1ccccc1)C2)c1ccccc1` showed a Ki [1] of 15 nM, a Ki [2] of 4.5 nM and a Ki [3] of 10 nM.
Work on `O[C@H](CN1[C@@H]2CC[C@H]1C[C@@H](Cc1ccc(F)cc1)C2)c1ccccc1` yielded a Ki [1] of 17 nM, a Ki [2] of 2.6 nM and a Ki [3] of 19 nM. The inhibition (Oocyte) was 2.3%.
With `O[C@H](CN1[C@@H]2CC[C@H]1C/C(=C\c1ccccc1)C2)c1ccccc1` the Ki [1] was 1.8 nM, the Ki [2] was 0.8 nM and the Ki [3] was 12 nM.
Compound `O[C@@H](CN1[C@@H]2CC[C@H]1C/C(=C\c1ccc(Cl)cc1)C2)c1ccccc1` has a Ki [1] of 4.4 nM, a Ki [2] of 2.7 nM and a Ki [3] of 15 nM.
Compound `O[C@@H](CN1[C@@H]2CC[C@H]1C/C(=C\c1ccccc1)C2)c1ccccc1` has a Ki [1] of 1.1 nM, a Ki [2] of 0.3 nM and a Ki [3] of 6.6 nM.
With `O[C@H](CN1[C@@H]2CC[C@H]1C[C@H](Cc1ccc(F)cc1)C2)c1ccccc1` the Ki [1] was 1.9 nM, the Ki [2] was 2.1 nM and the Ki [3] was 11 nM. The inhibition (Oocyte) was 3.1%.
`O[C@@H](CN1[C@@H]2CC[C@H]1C[C@H](Cc1ccc(F)cc1)C2)c1ccc(F)cc1` showed a Ki [1] of 5.9 nM, a Ki [2] of 25 nM and a Ki [3] of 15 nM.
`O[C@@H](CN1[C@@H]2CC[C@H]1C/C(=C\c1ccc(F)cc1)C2)c1ccccc1` gave a Ki [1] of 3 nM and an inhibition (Oocyte) of 1.3%.
Work on `O[C@H](CN1[C@@H]2CC[C@H]1C/C(=C/c1ccccc1)C2)c1ccccc1` yielded a Ki [1] of 21 nM, a Ki [2] of 11 nM and a Ki [3] of 27 nM.
Compound `O[C@@H](CN1[C@@H]2CC[C@H]1C/C(=C\c1ccccc1)C2)c1ccc(F)cc1` has a Ki [1] of 1.4 nM and a Ki [3] of 11 nM.
`O[C@@H](CN1[C@@H]2CC[C@H]1C/C(=C/c1ccc(Cl)cc1)C2)c1ccccc1` gave a Ki [1] of 13 nM, a Ki [2] of 18 nM and a Ki [3] of 22 nM.
Compound `O[C@@H](CN1[C@@H]2CC[C@H]1C[C@@H](Cc1ccc(F)cc1)C2)c1ccccc1` has a Ki [1] of 0.7 nM, a Ki [2] of 0.9 nM and a Ki [3] of 22 nM. For the same compound, the inhibition (Oocyte) was 8.7%.
`O[C@H](CN1[C@@H]2CC[C@H]1C/C(=C\c1ccc(Cl)cc1)C2)c1ccccc1` showed a Ki [1] of 4.4 nM, a Ki [2] of 1.9 nM and a Ki [3] of 30 nM.
Work on `O[C@@H](CN1[C@@H]2CC[C@H]1C/C(=C/c1ccccc1)C2)c1ccc(F)cc1` yielded a Ki [1] of 29 nM and a Ki [3] of 47 nM.
Work on `O[C@H](CN1[C@@H]2CC[C@H]1C[C@H](Cc1ccccc1)C2)c1ccccc1` (mixture of isomers) yielded a Ki [1] of 2.4 nM, a Ki [2] of 1.9 nM and a Ki [3] of 11 nM.
For `O[C@@H](CN1[C@@H]2CC[C@H]1C[C@H](Cc1ccccc1)C2)c1ccc(F)cc1`, the Ki [1] was 5.2 nM, the Ki [2] was 6.7 nM and the Ki [3] was 10 nM.
`O[C@@H](CN1[C@@H]2CC[C@H]1C[C@H](Cc1ccccc1)C2)c1ccccc1` gave a Ki [1] of 21 nM, a Ki [2] of 7 nM and a Ki [3] of 14 nM.
Work on `O[C@H](CN1[C@@H]2CC[C@H]1C/C(=C/c1ccc(Cl)cc1)C2)c1ccccc1` yielded a Ki [1] of 20 nM, a Ki [2] of 9 nM and a Ki [3] of 47 nM.
With `O[C@@H](CN1[C@@H]2CC[C@H]1C/C(=C/c1ccc(F)cc1)C2)c1ccccc1` the Ki [1] was 16 nM and the inhibition (Oocyte) was -0.9%.
Compound `C[C@H]([C@H](O)c1ccc(O)cc1)N1CCC(Cc2ccccc2)CC1` has a Ki [1] of 5.8 nM.
`O[C@@H](CN1[C@@H]2CC[C@H]1C/C(=C/c1ccc(F)cc1)C2)c1ccc(F)cc1` showed a Ki [1] of 7 nM, a Ki [2] of 28 nM and a Ki [3] of 21 nM.
Compound `O[C@@H](CN1[C@@H]2CC[C@H]1C[C@@H](Cc1ccc(F)cc1)C2)c1ccc(F)cc1` has a Ki [1] of 0.8 nM, a Ki [2] of 1.2 nM and a Ki [3] of 5.9 nM.
Compound `O[C@H](CN1[C@@H]2CC[C@H]1C/C(=C/c1ccc(F)cc1)C2)c1ccccc1` has a Ki [1] of 9.3 nM, a Ki [2] of 6.6 nM and a Ki [3] of 27 nM. The inhibition (Oocyte) was 1.5%.
